Inhibition data for eight compounds are collected here from ChEMBL document CHEMBL1153121, “2-Arylbenzoxazoles as CETP inhibitors: Substitution of the benzoxazole moiety” (Bioorg Med Chem Lett, 2010).

This experiment concerns the target Cholesteryl ester transfer protein (Homo sapiens) (UniProt P11597). Nature of the experiment: inhibition of human CETP assessed as cholesteryl ester transfer by fluorescence transfer assay relative to control. Details: concentration or dose not given beside the values. Particulars: concentration not given here.

Chain of Cholesteryl ester transfer protein (Homo sapiens) (P11597 whole entry, looked up): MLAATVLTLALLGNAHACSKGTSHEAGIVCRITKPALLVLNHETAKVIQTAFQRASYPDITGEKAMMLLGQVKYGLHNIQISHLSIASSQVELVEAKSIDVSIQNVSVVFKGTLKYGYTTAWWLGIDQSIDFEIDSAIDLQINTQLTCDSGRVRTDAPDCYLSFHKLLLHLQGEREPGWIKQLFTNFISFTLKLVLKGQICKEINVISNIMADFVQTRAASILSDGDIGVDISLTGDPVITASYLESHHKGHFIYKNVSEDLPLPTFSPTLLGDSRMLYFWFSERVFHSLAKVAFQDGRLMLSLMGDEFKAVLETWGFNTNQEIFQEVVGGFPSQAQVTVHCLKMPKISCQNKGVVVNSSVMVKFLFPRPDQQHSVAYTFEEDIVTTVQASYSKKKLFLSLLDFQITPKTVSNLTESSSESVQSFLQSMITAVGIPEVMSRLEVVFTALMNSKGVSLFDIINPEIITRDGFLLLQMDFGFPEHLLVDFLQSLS

The inhibition is the relative decrease from the control value, in per cent. For `Cc1ccccc1OCC(=O)Nc1ccc(-c2nc3ccc([N+](=O)[O-])cc3o2)cc1`, the inhibition is 71%.
`Cc1ccccc1OCC(=O)Nc1ccc(-c2nc3cccc(F)c3o2)cc1`: the inhibition was found to be 36%.
For `Cc1ccc2nc(-c3ccc(NC(=O)COc4ccccc4C)cc3)oc2c1`, the inhibition stood at 34%.
Consider `Cc1ccccc1OCC(=O)Nc1ccc(-c2nc3c([N+](=O)[O-])cccc3o2)cc1`, for which the inhibition came out at 42%.
`Cc1ccccc1OCC(=O)Nc1ccc(-c2nc3ccc(F)cc3o2)cc1`: the inhibition amounted to 50%.
In the case of `Cc1ccccc1OCC(=O)Nc1ccc(-c2nc3cc([N+](=O)[O-])ccc3o2)cc1`, the inhibition was determined as 79%.
For the compound `Cc1ccc2oc(-c3ccc(NC(=O)COc4ccccc4C)cc3)nc2c1`, the inhibition was found to be 89%.
For `Cc1ccccc1OCC(=O)Nc1ccc(-c2nc3cccc(Cl)c3o2)cc1`, the inhibition was found to be 71%.
